In brackets after ≈: the same amount, converted by molar mass. Activity calls are given as the source filed them. No cut-off for these calls is given here.
Test system: Staphylococcus aureus
Assay: Antibacterial activity against vancomycin intermediate and methicillin resistant Staphylococcus aureus ATCC 700699
Assay type: functional

| Structure (SMILES) | MIC |
| --- | --- |
| CNC(=O)c1cc(Oc2ccc(NC(=O)Nc3ccc(Cl)c(C(F)(F)F)c3)cc2)ccn1 [SORAFENIB] | 4.3 µM (≈ 2 µg/mL) |
| O=C(Nc1ccc(F)cc1)Nc1ccc(Cl)c(C(F)(F)F)c1 | 3.01 µM (≈ 1 µg/mL) |
| O=C(Nc1ccc(Cl)c(C(F)(F)F)c1)Nc1cc(Cl)c(F)cc1F | 2.6 µM (≈ 1 µg/mL) |
| O=C(Nc1ccc(OC(F)(F)F)cc1)N1CCN(c2ccc(Cl)c(C(F)(F)F)c2)C1=O | inactive |

Test system: Staphylococcus epidermidis
Assay: Antibacterial activity against methicillin sensitive Staphylococcus epidermidis 17-13
Assay type: functional

| Structure (SMILES) | MIC |
| --- | --- |
| CNC(=O)c1cc(Oc2ccc(NC(=O)Nc3ccc(Cl)c(C(F)(F)F)c3)cc2)ccn1 [SORAFENIB] | 8.61 µM (≈ 4 µg/mL) |
| O=C(Nc1ccc(F)cc1)Nc1ccc(Cl)c(C(F)(F)F)c1 | 6.01 µM (≈ 2 µg/mL) |
| O=C(Nc1ccc(Cl)c(C(F)(F)F)c1)Nc1cc(Cl)c(F)cc1F | 2.6 µM (≈ 1 µg/mL) |
| O=C(Nc1ccc(OC(F)(F)F)cc1)N1CCN(c2ccc(Cl)c(C(F)(F)F)c2)C1=O | inactive |

Test system: Staphylococcus aureus
Assay: Antibacterial activity against methicillin sensitive Staphylococcus aureus ATCC 29213
Assay type: functional

| Structure (SMILES) | MIC |
| --- | --- |
| CNC(=O)c1cc(Oc2ccc(NC(=O)Nc3ccc(Cl)c(C(F)(F)F)c3)cc2)ccn1 [SORAFENIB] | 8.61 µM (≈ 4 µg/mL) |
| O=C(Nc1ccc(F)cc1)Nc1ccc(Cl)c(C(F)(F)F)c1 | 12 µM (≈ 4 µg/mL) |
| O=C(Nc1ccc(Cl)c(C(F)(F)F)c1)Nc1cc(Cl)c(F)cc1F | 2.6 µM (≈ 1 µg/mL) |
| O=C(Nc1ccc(OC(F)(F)F)cc1)N1CCN(c2ccc(Cl)c(C(F)(F)F)c2)C1=O | inactive |

Test system: Enterococcus faecium
Assay: Antibacterial activity against Vanomycin-resistant Enterococcus faecium ATCC 700221
Assay type: functional

| Structure (SMILES) | MIC |
| --- | --- |
| CNC(=O)c1cc(Oc2ccc(NC(=O)Nc3ccc(Cl)c(C(F)(F)F)c3)cc2)ccn1 [SORAFENIB] | 275 µM (≈ 128 µg/mL) |
| O=C(Nc1ccc(F)cc1)Nc1ccc(Cl)c(C(F)(F)F)c1 | 48.1 µM (≈ 16 µg/mL) |
| O=C(Nc1ccc(Cl)c(C(F)(F)F)c1)Nc1cc(Cl)c(F)cc1F | 5.19 µM (≈ 2 µg/mL) |

Test system: Staphylococcus aureus
Assay: Antibacterial activity against methicillin sensitive Staphylococcus aureus ATCC 33591
Assay type: functional

| Structure (SMILES) | MIC |
| --- | --- |
| CNC(=O)c1cc(Oc2ccc(NC(=O)Nc3ccc(Cl)c(C(F)(F)F)c3)cc2)ccn1 [SORAFENIB] | 8.61 µM (≈ 4 µg/mL) |
| O=C(Nc1ccc(F)cc1)Nc1ccc(Cl)c(C(F)(F)F)c1 | 6.01 µM (≈ 2 µg/mL) |
| O=C(Nc1ccc(Cl)c(C(F)(F)F)c1)Nc1cc(Cl)c(F)cc1F | 1.3 µM (≈ 0.501 µg/mL) |
| O=C(Nc1ccc(OC(F)(F)F)cc1)N1CCN(c2ccc(Cl)c(C(F)(F)F)c2)C1=O | inactive |

Test system: not listed separately
Assay: Cytotoxicity against human HeLa cells by SRB assay
Assay type: toxicity, cell-based

| Structure (SMILES) | IC50 |
| --- | --- |
| CNC(=O)c1cc(Oc2ccc(NC(=O)Nc3ccc(Cl)c(C(F)(F)F)c3)cc2)ccn1 [SORAFENIB] | 3.31 µM |
| O=C(Nc1ccc(OC(F)(F)F)cc1)N1CCN(c2ccc(Cl)c(C(F)(F)F)c2)C1=O | 100 µM |

Test system: Staphylococcus epidermidis
Assay: Antibacterial activity against methicillin resistant Staphylococcus epidermidis 19-1
Assay type: functional

| Structure (SMILES) | MIC |
| --- | --- |
| CNC(=O)c1cc(Oc2ccc(NC(=O)Nc3ccc(Cl)c(C(F)(F)F)c3)cc2)ccn1 [SORAFENIB] | 4.3 µM (≈ 2 µg/mL) |
| O=C(Nc1ccc(F)cc1)Nc1ccc(Cl)c(C(F)(F)F)c1 | 6.01 µM (≈ 2 µg/mL) |
| O=C(Nc1ccc(Cl)c(C(F)(F)F)c1)Nc1cc(Cl)c(F)cc1F | 2.6 µM (≈ 1 µg/mL) |
| O=C(Nc1ccc(OC(F)(F)F)cc1)N1CCN(c2ccc(Cl)c(C(F)(F)F)c2)C1=O | inactive |

Test system: Staphylococcus aureus
Assay: Antibacterial activity against methicillin resistant Staphylococcus aureus ATCC 43300
Assay type: functional

| Structure (SMILES) | MIC |
| --- | --- |
| CNC(=O)c1cc(Oc2ccc(NC(=O)Nc3ccc(Cl)c(C(F)(F)F)c3)cc2)ccn1 [SORAFENIB] | 17.2 µM (≈ 8 µg/mL) |
| O=C(Nc1ccc(F)cc1)Nc1ccc(Cl)c(C(F)(F)F)c1 | 12 µM (≈ 4 µg/mL) |
| O=C(Nc1ccc(Cl)c(C(F)(F)F)c1)Nc1cc(Cl)c(F)cc1F | 2.6 µM (≈ 1 µg/mL) |
| O=C(Nc1ccc(OC(F)(F)F)cc1)N1CCN(c2ccc(Cl)c(C(F)(F)F)c2)C1=O | inactive |

Test system: Enterococcus faecalis
Assay: Antibacterial activity against Vanomycin-resistant Enterococcus faecalis ATCC 51575
Assay type: functional

| Structure (SMILES) | MIC |
| --- | --- |
| CNC(=O)c1cc(Oc2ccc(NC(=O)Nc3ccc(Cl)c(C(F)(F)F)c3)cc2)ccn1 [SORAFENIB] | 275 µM (≈ 128 µg/mL) |
| O=C(Nc1ccc(F)cc1)Nc1ccc(Cl)c(C(F)(F)F)c1 | 192 µM (≈ 64 µg/mL) |
| O=C(Nc1ccc(Cl)c(C(F)(F)F)c1)Nc1cc(Cl)c(F)cc1F | 10.4 µM (≈ 4 µg/mL) |

Test system: Staphylococcus aureus
Assay: Antibacterial activity against methicillin resistant Staphylococcus aureus 20-11
Assay type: functional

| Structure (SMILES) | MIC |
| --- | --- |
| CNC(=O)c1cc(Oc2ccc(NC(=O)Nc3ccc(Cl)c(C(F)(F)F)c3)cc2)ccn1 [SORAFENIB] | 8.61 µM (≈ 4 µg/mL) |
| O=C(Nc1ccc(F)cc1)Nc1ccc(Cl)c(C(F)(F)F)c1 | 12 µM (≈ 4 µg/mL) |
| O=C(Nc1ccc(Cl)c(C(F)(F)F)c1)Nc1cc(Cl)c(F)cc1F | 2.6 µM (≈ 1 µg/mL) |
| O=C(Nc1ccc(OC(F)(F)F)cc1)N1CCN(c2ccc(Cl)c(C(F)(F)F)c2)C1=O | inactive |

Test system: Enterococcus faecium
Assay: Antibacterial activity against Vanomycin-resistant Enterococcus faecium 15-6
Assay type: functional

| Structure (SMILES) | MIC |
| --- | --- |
| CNC(=O)c1cc(Oc2ccc(NC(=O)Nc3ccc(Cl)c(C(F)(F)F)c3)cc2)ccn1 [SORAFENIB] | 275 µM (≈ 128 µg/mL) |
| O=C(Nc1ccc(F)cc1)Nc1ccc(Cl)c(C(F)(F)F)c1 | 48.1 µM (≈ 16 µg/mL) |
| O=C(Nc1ccc(Cl)c(C(F)(F)F)c1)Nc1cc(Cl)c(F)cc1F | 5.19 µM (≈ 2 µg/mL) |

Test system: Enterococcus faecalis
Assay: Antibacterial activity against Vanomycin-resistant Enterococcus faecalis ATCC 51299
Assay type: functional

| Structure (SMILES) | MIC |
| --- | --- |
| CNC(=O)c1cc(Oc2ccc(NC(=O)Nc3ccc(Cl)c(C(F)(F)F)c3)cc2)ccn1 [SORAFENIB] | 275 µM (≈ 128 µg/mL) |
| O=C(Nc1ccc(F)cc1)Nc1ccc(Cl)c(C(F)(F)F)c1 | 192 µM (≈ 64 µg/mL) |
| O=C(Nc1ccc(Cl)c(C(F)(F)F)c1)Nc1cc(Cl)c(F)cc1F | 20.8 µM (≈ 8 µg/mL) |

Test system: Staphylococcus epidermidis
Assay: Antibacterial activity against methicillin resistant Staphylococcus epidermidis 19-2
Assay type: functional

| Structure (SMILES) | MIC |
| --- | --- |
| CNC(=O)c1cc(Oc2ccc(NC(=O)Nc3ccc(Cl)c(C(F)(F)F)c3)cc2)ccn1 [SORAFENIB] | 4.3 µM (≈ 2 µg/mL) |
| O=C(Nc1ccc(F)cc1)Nc1ccc(Cl)c(C(F)(F)F)c1 | 6.01 µM (≈ 2 µg/mL) |
| O=C(Nc1ccc(Cl)c(C(F)(F)F)c1)Nc1cc(Cl)c(F)cc1F | 1.3 µM (≈ 0.501 µg/mL) |
| O=C(Nc1ccc(OC(F)(F)F)cc1)N1CCN(c2ccc(Cl)c(C(F)(F)F)c2)C1=O | inactive |

Test system: not listed separately
Assay: Cytotoxicity against human HepG2 cells by SRB assay
Assay type: toxicity, cell-based

| Structure (SMILES) | IC50 |
| --- | --- |
| O=C(Nc1ccc(OC(F)(F)F)cc1)N1CCN(c2ccc(Cl)c(C(F)(F)F)c2)C1=O | 100 µM |

Test system: Staphylococcus aureus
Assay: Antibacterial activity against vancomycin intermediate and methicillin resistant Staphylococcus aureus ATCC 700698
Assay type: functional

| Structure (SMILES) | MIC |
| --- | --- |
| CNC(=O)c1cc(Oc2ccc(NC(=O)Nc3ccc(Cl)c(C(F)(F)F)c3)cc2)ccn1 [SORAFENIB] | 17.2 µM (≈ 8 µg/mL) |
| O=C(Nc1ccc(F)cc1)Nc1ccc(Cl)c(C(F)(F)F)c1 | 12 µM (≈ 4 µg/mL) |
| O=C(Nc1ccc(Cl)c(C(F)(F)F)c1)Nc1cc(Cl)c(F)cc1F | 2.6 µM (≈ 1 µg/mL) |
| O=C(Nc1ccc(OC(F)(F)F)cc1)N1CCN(c2ccc(Cl)c(C(F)(F)F)c2)C1=O | inactive |

Test system: Enterococcus faecium
Assay: Antibacterial activity against Vanomycin-resistant Enterococcus faecium ATCC 51559
Assay type: functional

| Structure (SMILES) | MIC |
| --- | --- |
| CNC(=O)c1cc(Oc2ccc(NC(=O)Nc3ccc(Cl)c(C(F)(F)F)c3)cc2)ccn1 [SORAFENIB] | 275 µM (≈ 128 µg/mL) |
| O=C(Nc1ccc(F)cc1)Nc1ccc(Cl)c(C(F)(F)F)c1 | 96.2 µM (≈ 32 µg/mL) |
| O=C(Nc1ccc(Cl)c(C(F)(F)F)c1)Nc1cc(Cl)c(F)cc1F | 5.19 µM (≈ 2 µg/mL) |

Test system: Staphylococcus epidermidis
Assay: Antibacterial activity against methicillin sensitive Staphylococcus epidermidis ATCC 12228
Assay type: functional

| Structure (SMILES) | MIC |
| --- | --- |
| CNC(=O)c1cc(Oc2ccc(NC(=O)Nc3ccc(Cl)c(C(F)(F)F)c3)cc2)ccn1 [SORAFENIB] | 4.3 µM (≈ 2 µg/mL) |
| O=C(Nc1ccc(F)cc1)Nc1ccc(Cl)c(C(F)(F)F)c1 | 6.01 µM (≈ 2 µg/mL) |
| O=C(Nc1ccc(Cl)c(C(F)(F)F)c1)Nc1cc(Cl)c(F)cc1F | 2.6 µM (≈ 1 µg/mL) |
| O=C(Nc1ccc(OC(F)(F)F)cc1)N1CCN(c2ccc(Cl)c(C(F)(F)F)c2)C1=O | inactive |

Test system: Staphylococcus aureus
Assay: Antibacterial activity against methicillin sensitive Staphylococcus aureus 20-12
Assay type: functional

| Structure (SMILES) | MIC |
| --- | --- |
| CNC(=O)c1cc(Oc2ccc(NC(=O)Nc3ccc(Cl)c(C(F)(F)F)c3)cc2)ccn1 [SORAFENIB] | 8.61 µM (≈ 4 µg/mL) |
| O=C(Nc1ccc(F)cc1)Nc1ccc(Cl)c(C(F)(F)F)c1 | 12 µM (≈ 4 µg/mL) |
| O=C(Nc1ccc(Cl)c(C(F)(F)F)c1)Nc1cc(Cl)c(F)cc1F | 2.6 µM (≈ 1 µg/mL) |
| O=C(Nc1ccc(OC(F)(F)F)cc1)N1CCN(c2ccc(Cl)c(C(F)(F)F)c2)C1=O | inactive |

Test system: Staphylococcus aureus
Assay: Antibacterial activity against methicillin resistant Staphylococcus aureus 18-2
Assay type: functional

| Structure (SMILES) | MIC |
| --- | --- |
| CNC(=O)c1cc(Oc2ccc(NC(=O)Nc3ccc(Cl)c(C(F)(F)F)c3)cc2)ccn1 [SORAFENIB] | 17.2 µM (≈ 8 µg/mL) |
| O=C(Nc1ccc(F)cc1)Nc1ccc(Cl)c(C(F)(F)F)c1 | 6.01 µM (≈ 2 µg/mL) |
| O=C(Nc1ccc(Cl)c(C(F)(F)F)c1)Nc1cc(Cl)c(F)cc1F | 2.6 µM (≈ 1 µg/mL) |
| O=C(Nc1ccc(OC(F)(F)F)cc1)N1CCN(c2ccc(Cl)c(C(F)(F)F)c2)C1=O | inactive |

Test system: Staphylococcus aureus
Assay: Antibacterial activity against methicillin sensitive Staphylococcus aureus 15
Assay type: functional

| Structure (SMILES) | MIC |
| --- | --- |
| CNC(=O)c1cc(Oc2ccc(NC(=O)Nc3ccc(Cl)c(C(F)(F)F)c3)cc2)ccn1 [SORAFENIB] | 4.3 µM (≈ 2 µg/mL) |
| O=C(Nc1ccc(F)cc1)Nc1ccc(Cl)c(C(F)(F)F)c1 | 6.01 µM (≈ 2 µg/mL) |
| O=C(Nc1ccc(Cl)c(C(F)(F)F)c1)Nc1cc(Cl)c(F)cc1F | 1.3 µM (≈ 0.501 µg/mL) |
| O=C(Nc1ccc(OC(F)(F)F)cc1)N1CCN(c2ccc(Cl)c(C(F)(F)F)c2)C1=O | inactive |

Reference: ChEMBL document CHEMBL5223117, “Synthesis and biological evaluation of novel N, N'-diarylurea derivatives as potent antibacterial agents against MRSA” (Bioorg Med Chem Lett, 2022)
